Measured values taken from patent publication US11230543B2, “Biaryl monobactam compounds and methods of use thereof for the treatment of bacterial infections” (priority 2015, dated 2022).
Counter-ions that a name gives are not always drawn.

Columns and labels:
[1] = system: Pseudomonas aeruginosa expressing AmpC (CL5701); assay: Antibiotic activity: growth inhibitory concentration (OD600), Pseudomonas aeruginosa CL5701; type: cell-based; conditions: lowest concentration inhibiting 95% of bacterial growth; in the presence of β lactamase inhibitor Relebactam 4 μg/mL; 35±2° C. for 22 hours; tested range 100 μM to 0.098 μM
In short: (§1)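 Growth inhibition by OD600 after 22 hours incubation at 35±2° C, reported as lowest concentration inhibiting 95% of growth (MITC95). Final compound range 100 μM to 0.098 μM, always combined with β-lactamase inhibitor relebactam (4 μg/mL final); inoculum ~2×10^5 CFU/mL in cation-adjusted Mueller-Hinton II broth.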

[2] = system: Klebsiella pneumoniae expressing KPC-1 (CL6569); assay: Antibiotic activity: growth inhibitory concentration (OD600), Klebsiella pneumoniae CL6569; type: cell-based; conditions: lowest concentration inhibiting 95% of bacterial growth; in the presence of β lactamase inhibitor Relebactam 4 μg/mL; 35±2° C. for 22 hours; tested range 100 μM to 0.098 μM
In short: as §1

| SMILES | PA_CL5701 MITC95 [1] | KP_CL6569 MITC95 [2] |
| --- | --- | --- |
| CC1(C)[C@H](NC(=O)/C(=N\O[C@@H](COc2ccc([C@H]3CN=C(NCCN)N3)cc2)C(=O)O)c2csc(N)n2)C(=O)N1OS(=O)(=O)O [Example 58, (S)-3-(4-((S)-2-((2-aminoethyl)amino)-4,5-dihydro-1H-imidazol-4-yl)phenoxy)-2-((((Z)-1-(2-aminothiazol-4-yl)-2-(((S)-2,2-dimethyl-4-oxo-1-(sulfooxy)azetidin-3-yl)amino)-2-oxoethylidene)amino)oxy)propanoic acid] | 3.125 µM | 0.3906 µM |
| CC1(C)[C@H](NC(=O)/C(=N\O[C@@H](COc2ccc(C3CN=C(NCCN)N3)cc2)C(=O)O)c2csc(N)n2)C(=O)N1OS(=O)(=O)O (stereo partly drawn) [Example 60, (2S)-3-(4-(2-((2-aminoethyl)amino)-4,5-dihydro-1H-imidazol-5-yl)phenoxy)-2-((((Z)-1-(2-aminothiazol-4-yl)-2-(((S)-2,2-dimethyl-4-oxo-1-(sulfooxy)azetidin-3-yl)amino)-2-oxoethylidene)amino)oxy)propanoic acid] | 3.125 µM | 0.3906 µM |
| CC1(C)[C@H](NC(=O)/C(=N\O[C@@H](COc2ccc(C(N)CNC3=NCCN3)cc2)C(=O)O)c2csc(N)n2)C(=O)N1OS(=O)(=O)O (stereo partly drawn) [Example 61, (2S)-3-(4-(1-amino-2-((4,5-dihydro-1H-imidazol-2-yl)amino)ethyl)phenoxy)-2-((((Z)-1-(2-aminothiazol-4-yl)-2-(((S)-2,2-dimethyl-4-oxo-1-(sulfooxy)azetidin-3-yl)amino)-2-oxoethylidene)amino)oxy)propanoic acid] | 12.5 µM | 1.563 µM |
| C[n+]1ccc(-c2ccc(OC[C@H](O/N=C(\C(=O)N[C@@H]3C(=O)N(OS(=O)(=O)[O-])C3(C)C)c3csc(N)n3)C(=O)O)cc2)cc1NCCN [Example 62, (S)-3-((Z)-2-(((S)-2-(4-(2-((2-aminoethyl)amino)-1-methylpyridin-1-ium-4-yl)phenoxy)-1-carboxyethoxy)imino)-2-(2-aminothiazol-4-yl)acetamido)-2,2-dimethyl-4-oxoazetidin-1-yl sulfate] | 5.8 µM | 0.36 µM |
| C[n+]1ccc(-c2ccc(OC[C@H](O/N=C(\C(=O)N[C@@H]3C(=O)N(OS(=O)(=O)[O-])C3(C)C)c3csc(N)n3)C(=O)O)cc2)cc1NCCCN [Example 63, (S)-3-((Z)-2-(((S)-2-(4-(2-((3-aminopropyl)amino)-1-methylpyridin-1-ium-4-yl)phenoxy)-1-carboxyethoxy)imino)-2-(2-aminothiazol-4-yl)acetamido)-2,2-dimethyl-4-oxoazetidin-1-yl sulfate] | 6.25 µM | 0.3906 µM |
| CC1(C)[C@H](NC(=O)/C(=N\O[C@@H](COc2ccc(-c3ccnc(NCCCN)c3)cc2)C(=O)O)c2csc(N)n2)C(=O)N1OS(=O)(=O)O [Example 64, (S)-3-((Z)-2-(((S)-2-(4-(2-((3-aminopropyl)amino)pyridin-4-yl)phenoxy)-1-carboxyethoxy)imino)-2-(2-aminothiazol-4-yl)acetamido)-2,2-dimethyl-4-oxoazetidin-1-yl sulfate] | 12.5 µM | 1.563 µM |
| C[n+]1ccc(-c2ccc(OC[C@H](O/N=C(\C(=O)N[C@@H]3C(=O)N(OS(=O)(=O)[O-])C3(C)C)c3csc(N)n3)C(=O)O)cc2)cc1NCC1CNC1 [Example 65, (S)-3-((Z)-2-(2-aminothiazol-4-yl)-2-(((S)-2-(4-(2-((azetidin-3-ylmethyl)amino)-1-methylpyridin-1-ium-4-yl)phenoxy)-1-carboxy-ethoxy)imino)acetamido)-2,2-dimethyl-4-oxoazetidin-1-yl sulfate] | 12.5 µM | 0.3906 µM |
| C[n+]1cc(-c2ccc(OC[C@H](O/N=C(\C(=O)N[C@@H]3C(=O)N(OS(=O)(=O)[O-])C3(C)C)c3csc(N)n3)C(=O)O)cc2)ccc1NCCN [Example 66, (S)-3-((Z)-2-(((S)-2-(4-(6-((2-aminoethyl)amino)-1-methylpyridin-1-ium-3-yl)phenoxy)-1-carboxyethoxy)imino)-2-(2-aminothiazol-4-yl)acetamido)-2,2-dimethyl-4-oxoazetidin-1-yl sulfate] | 1.708 µM | 0.2135 µM |
| C[n+]1cc(-c2ccc(OC[C@H](O/N=C(\C(=O)N[C@@H]3C(=O)N(OS(=O)(=O)[O-])C3(C)C)c3nc(N)sc3Cl)C(=O)O)cc2)ccc1NCCN [Example 67, (S)-3-((Z)-2-(2-amino-5-chlorothiazol-4-yl)-2-(((S)-2-(4-(6-((2-aminoethyl)amino)-1-methylpyridin-1-ium-3-yl)phenoxy)-1-carboxyethoxy)imino)acetamido)-2,2-dimethyl-4-oxoazetidin-1-yl sulfate] | 6.25 µM | 0.7813 µM |
| C[n+]1cc(-c2ccc(OC[C@H](O/N=C(\C(=O)N[C@@H]3C(=O)N(OS(=O)(=O)[O-])C3(C)C)c3csc(N)n3)C(=O)O)cc2F)ccc1NCCN [Example 68, (S)-3-((Z)-2-(((S)-2-(4-(6-((2-aminoethyl)amino)-1-methylpyridin-1-ium-3-yl)-3-fluorophenoxy)-1-carboxyethoxy)imino)-2-(2-aminothiazol-4-yl)acetamido)-2,2-dimethyl-4-oxoazetidin-1-yl sulfate] | 3.125 µM | 0.1953 µM |
| C[n+]1cc(-c2ccc(OC[C@H](O/N=C(\C(=O)N[C@@H]3C(=O)N(OS(=O)(=O)[O-])C3(C)C)c3nc(N)sc3Cl)C(=O)O)cc2F)ccc1NCCN [Example 69, (S)-3-((Z)-2-(2-amino-5-chlorothiazol-4-yl)-2-(((S)-2-(4-(6-((2-aminoethyl)amino)-1-methylpyridin-1-ium-3-yl)-3-fluorophenoxy)-1-carboxyethoxy)imino)acetamido)-2,2-dimethyl-4-oxoazetidin-1-yl sulfate] | 3.125 µM | 0.3906 µM |
| CC1(C)[C@H](NC(=O)/C(=N\O[C@@H](COc2ccc(-c3cnc(NCCN)nc3)cc2)C(=O)O)c2csc(N)n2)C(=O)N1OS(=O)(=O)O [Example 70, (S)-3-(4-(2-((2-aminoethyl)amino)pyrimidin-5-yl)phenoxy)-2-((((Z)-1-(2-aminothiazol-4-yl)-2-(((S)-2,2-dimethyl-4-oxo-1-(sulfooxy)azetidin-3-yl)amino)-2-oxoethylidene)amino)oxy)propanoic acid] | 6.25 µM | 0.7813 µM |
| C[n+]1cc(-c2ccc(OC[C@H](O/N=C(\C(=O)N[C@@H]3C(=O)N(OS(=O)(=O)[O-])C3(C)C)c3csc(N)n3)C(=O)O)cc2)ccc1N1CCNCC1 [Example 71, (S)-3-((Z)-2-(2-aminothiazol-4-yl)-2-(((S)-1-carboxy-2-(4-(1-methyl-6-(piperazin-1-yl)pyridin-1-ium-3-yl)phenoxy)ethoxy)imino)acetamido)-2,2-dimethyl-4-oxoazetidin-1-yl sulfate] | 6.25 µM | 0.1953 µM |
| C[n+]1cc(NCCN)ccc1-c1ccc(OC[C@H](O/N=C(\C(=O)N[C@@H]2C(=O)N(OS(=O)(=O)[O-])C2(C)C)c2csc(N)n2)C(=O)O)cc1 [Example 72, (S)-3-((Z)-2-(((S)-2-(4-(5-((2-aminoethyl)amino)-1-methylpyridin-1-ium-2-yl)phenoxy)-1-carboxyethoxy)imino)-2-(2-aminothiazol-4-yl)acetamido)-2,2-dimethyl-4-oxoazetidin-1-yl sulfate] | 6.25 µM | 0.3906 µM |
| C[n+]1cc(-c2ccc(OC[C@H](O/N=C(\C(=O)N[C@@H]3C(=O)N(OS(=O)(=O)[O-])C3(C)C)c3csc(N)n3)C(=O)O)cc2)ccc1NCC1(O)CNC1 [Example 73, (S)-3-((Z)-2-(2-aminothiazol-4-yl)-2-(((S)-1-carboxy-2-(4-(6-(((3-hydroxyazetidin-3-yl)methyl)amino)-1-methylpyridin-1-ium-3-yl)phenoxy)ethoxy)imino)acetamido)-2,2-dimethyl-4-oxoazetidin-1-yl sulfate] | 3.125 µM | 0.1953 µM |
| C[n+]1cc(-c2ccc(OC[C@H](O/N=C(\C(=O)N[C@@H]3C(=O)N(OS(=O)(=O)[O-])C3(C)C)c3csc(N)n3)C(=O)O)cc2)ccc1NCC1(N)CC1 [Example 74, (S)-3-((Z)-2-(((S)-2-(4-(6-(((1-aminocyclopropyl)methyl)amino)-1-methylpyridin-1-ium-3-yl)phenoxy)-1-carboxyethoxy)imino)-2-(2-aminothiazol-4-yl)acetamido)-2,2-dimethyl-4-oxoazetidin-1-yl sulfate] | 6.25 µM | 0.1953 µM |
| CC(CN)Nc1ccc(-c2ccc(OC[C@H](O/N=C(\C(=O)N[C@@H]3C(=O)N(OS(=O)(=O)[O-])C3(C)C)c3csc(N)n3)C(=O)O)cc2)c[n+]1C (stereo partly drawn) [Example 75, (3S)-3-((Z)-2-(((1S)-2-(4-(6-((1-aminopropan-2-yl)amino)-1-methylpyridin-1-ium-3-yl)phenoxy)-1-carboxyethoxy)imino)-2-(2-aminothiazol-4-yl)acetamido)-2,2-dimethyl-4-oxoazetidin-1-yl sulfate] | 3.125 µM | 0.1953 µM |
